Measurements taken from patent US8685371B2, “Agents for detecting and imaging cell death” (Cambridge Enterprise Limited, priority 2008, dated 2014).
Where “and” joins values, the source holds several entries; their conditions need not be identical. Equal values may be shown once. Read-outs that look alike come from different tables or passages of the source.

Legend:
Experiment in all cases: Surface plasmon resonance (SPR) binding to phosphatidylserine-coated L1 chip
[1] = biological target: T1, Rattus norvegicus synaptotagmin I C2A domain, wild type (Rattus norvegicus, UniProt P21707); details: FIG. 8; thermal equilibrium SPR data, 1:1 Langmuir binding model, protein 5-95 nM, 37° C., 2 mM CaCl2, pH 7.4; read-out: dissociation constant (KD)
T1 construct: GST (N); made in house; host or cells: E. coli BL21
Description: (§1) Large multilamellar vesicles (LMVs) were prepared using three types of phospholipids (Phosphatidylserine, PS; Phosphatidylethanolamine, PE and Phosphatidylcholine, PC, Avanti Polar Lipids, Alabaster, Ala., USA). A sample of 2.6 μmol of phospholipids (PS:PE:PC mixture in chloroform; molar ratio 35:50:15) was dried under a gentle stream of nitrogen for half an hour and resuspended in 2.6 mL of C2A binding buffer (HBS=20 mM HEPES, 150 mM NaCl, pH 7.4, containing 2 mM CaCl2), by vigorous vortex mixing.
Surface Plasmon Resonance (SPR) analysis was performed on L1 sensor chips using a Biacore T100 system (Biacore, GE Healthcare). […]
Each protein solution was prepared automatically by the system at varying concentrations from 0 to 100 nM or from 5 nM to 75 nM using automated mix fraction preparation, and all injections were conducted in duplicate in C2A binding buffer at a flow rate of 30 μL min^−1 and 37° C. All concentrations were analyzed in duplicate. Protein affinity for PS was evaluated by estimating the thermal equilibrium affinity dissociation constants (KD), obtained from the response values 4 s before the end of the association phase of the corresponding interaction sensorgrams (FIG. 8). […]

[2] = biological target: T2, Rattus norvegicus synaptotagmin I C2A domain variant C2Am, S78C (S217C of full-length synaptotagmin I), SEQ ID NO: 1 (Rattus norvegicus, UniProt P21707, S217C); details: 37° C., 2 mM CaCl2, pH 7.4
T2 construct: GST (N, cleaved yes); linker between GST and C2A (part after the thrombin site) (N); made in house; host or cells: E. coli BL21
Excerpt: (§2) The Rattus norvegicus synaptotagmin sequence was acquired using the NCBI Genbank service (sequence identity NM_001033680; NM_001033680.2) and the C2A domain was selected from this sequence. Three candidate cysteine mutants were selected at: Ser217, Gln154, Asn248 (see FIG. 2). Appropriate primers for mutagenesis were designed with the use of Quikchange Primer Design software. The C2A-containing pGEX-2T vector (GE Healthcare, Chalfont St Giles, UK) was isolated from BL21 E. coli cells and underwent a double restriction digest to confirm its identity. Mutagenesis was performed by the Stratagene QuikChange Site-Directed Mutagenesis kit. E. coli DH5α competent cells were transformed with the mutant plasmid by heat shock and the amplified vector then isolated and sequenced. Finally, E. coli BL21 cells were transformed with the vector by electroporation.
(§3) S217C (position 78 of the C2A domain; position 217 of full-length Synaptotagmin I) mutant was selected as the best expressed site-directed mutant of C2A (C2Am).
as §1
Surface Plasmon Resonance (SPR) analysis was performed on L1 sensor chips using a Biacore T100 system (Biacore, GE Healthcare).
In some experiments, the chip flow cells were washed with a 2-min pulse of a mixture of isopropanol/NaOH 50 mM (2:3 volume) at 5 μL, min^−1, and one coated with 5 μL of a suspension of SMVs containing 1 mM of phospholipids (at 1 μL min^−1), generating an average relative response of ca. 2,000 RU (relative units). Unbound multilamellar material was removed from the chip after SMV injection, by applying three 20s regeneration pulses of sodium hydroxide (50 mM, at 20 μL min^−1).
In other experiments, the chip flow cells were washed with two, 30 s pulses of 20 mM, 3-[(3Cholamidopropyl)dimethylammonio]-1-propanesulfonate (CHAPS, at 30 μL min−1), then one flow cell (test) was coated with a suspension of test SMVs (PS:PE:PC) containing 1 mM of phospholipids (at 5 μL min−1), until an average relative response of ca. 5000 RU (relative units) was reached. Unbound multilamellar material was removed from the lipid bilayer after SMV injection, by applying two, 30 s pulses of sodium hydroxide (50 mM, at 30 μL min−1).
Another flow cell was left uncoated as a control path. In some experiments, another flow cell (control) was coated with a suspension of control SMVs (PE:PC) containing 1 mM of phospholipids (at 5 μL min−1), until an average relative response of ca. 5000 RU (relative units). Control SMVs were prepared using PE and PC (molar ratio 77:23), and unbound material removed as above
After a stable baseline had been achieved, the proteins were allowed to interact sequentially with the chip surface of the two flow cells of interest, for 2 min (association phase) and 1 min (dissociation phase) at 30 μL min^−1 or for 60 s (association phase) at 40 μL min^−1 at 37° C. The phospholipid bilayer was regenerated using a 15 s or 20 s pulse of HBS containing 10 mM NaEDTA, or (HBS, 20 mm EDTA, pH 7.4) at 40 μL min^−1, after each individual injection.
Each protein solution was prepared automatically by the system at varying concentrations from 0 to 100 nM or from 5 nM to 75 nM using automated mix fraction preparation, and all injections were conducted in duplicate in C2A binding buffer at a flow rate of 30 μL min^−1 and 37° C. All concentrations were analyzed in duplicate. […]

[3] = biological target: T3, C2Am-AlxAF647: Rattus norvegicus synaptotagmin I C2A domain variant C2Am, S78C (S217C of full-length synaptotagmin I), SEQ ID NO: 1, labelled at cysteine-78 wit (Rattus norvegicus, UniProt P21707, S217C); details: 37° C., 2 mM CaCl2, pH 7.4
T3 construct: GST (N, cleaved yes); linker between GST and C2A (part after the thrombin site) (N); made in house; host or cells: E. coli BL21
Excerpt: as §2, §3
The mutant protein (C2Am) was covalently labeled with the fluorochrome Alexa Fluor 647 (AlxAF647), via a reaction between the cysteine-78 residue with the maleimide group of Alexa Fluor 647 C2 maleimide (Invitrogen). Briefly, the protein was reduced using 10 mM DTT for half an hour at room temperature. The protein was then washed in a 5-KDa vivaspin concentrator (Sartorius, Epsom, UK) in HNE buffer (20 mM HEPES, 100 mM NaCl, 5 mM EDTA, pH 7.4). This removed any residual DTT, which interferes with the conjugation reaction. The protein was kept at a concentration in the range 50-100 μM, and approximately a 10-fold molar excess of the fluorescent maleimide dye was added. The reaction was allowed to proceed on a magnetic stirrer at 4° C. overnight. Gel filtration was used to separate the modified protein from unreacted dye. Electrospray ionisation (ESI) mass spectrometry was used to confirm successful modification of the protein, which yielded a single species of approximately 17204 Da (C2Am-AlxAF647). ESI mass spectrometry of Annexin V-Alexa Fluor647™ was also performed. Briefly, samples were desalted using Millipore mC18 Ziptips and eluted with 50% MeCN/0.2% formic acid. Samples were analyzed by direct infusion at a flow rate of […] into a Waters QtofMicro, using 70% MeOH/0.2% formic acid as the mobile phase. Typical settings: capillary 3000V, cone 90V, capillary temperature 80° C., desolvation temperature 150° C., calibration by myoglobin and/or trypsinogen collected later in the same file. Deconvolution was conducted using Waters MassLynx MaxEnt 1 software (Waters Ltd, Manchester, UK). […]

[4] = kinetic analysis of SPR data, read-out: KD (kinetics)

T3 sequence (P21707 140-267 S217C): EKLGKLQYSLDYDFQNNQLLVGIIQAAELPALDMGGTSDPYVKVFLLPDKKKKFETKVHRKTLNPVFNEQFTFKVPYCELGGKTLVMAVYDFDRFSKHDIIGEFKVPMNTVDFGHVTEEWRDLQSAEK
T2 sequence (P21707 140-267 S217C): as above
T1 sequence (P21707 141-260 limits assumed): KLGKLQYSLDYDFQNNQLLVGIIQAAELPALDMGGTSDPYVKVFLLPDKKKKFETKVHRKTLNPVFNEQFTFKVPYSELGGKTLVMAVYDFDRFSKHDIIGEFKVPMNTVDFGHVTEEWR

Kd [1]: 48.5 ± 3.5 nM | Kd ([2]; FIG. 8, thermal equilibrium SPR data, 1:1 Langmuir binding model, protein 5-95 nM, read-out: dissociation constant (KD)): 49.4 ± 4.9 nM | Kd ([2]; affinity analysis of SPR data, duplicate injections, listed as PS, read-out: KD (affinity)): 55.4 ± 3.5 nM | Kd ([2]; affinity analysis of SPR data, duplicate injections, read-out: KD (affinity)): ~55 nM and 55.4 nM | ka (kinetics) ([2]; kinetic analysis of SPR data): 2.01e+06 M⁻¹ s⁻¹ | kd (kinetics) ([2]; kinetic analysis of SPR data): 0.110 s⁻¹ | Kd [2, 4]: 54.2 nM | Kd ([3]; affinity analysis of SPR data, read-out: KD (affinity)): 71 ± 6.9 nM | ka (kinetics) ([3]; kinetic analysis of SPR data): 2.14e+06 M⁻¹ s⁻¹ | kd (kinetics) ([3]; kinetic analysis of SPR data): 0.188 s⁻¹ | Kd [3, 4]: 87.9 nM
Substance: Phosphatidylserine
